Assay results from patent publication US10233463B2, “Neurotensin-induced tumor formation is regulated by micro RNA 133A-aftiphilin-dependent receptor recycling” (THE REGENTS OF THE UNIVERSITY OF CALIFORNIA, priority 2013, dated 2019).

Tests used:
[1] = tested on: NCM460-NTR1 cells; test: NTR1 localization and recycling by immunofluorescence; type: cell-based, human; conditions: 10 nM Brefeldin A during recovery
Method: Immunofluorescence. NCM460-NTR1 cells were transfected with antisense miR-133α (as-miR-133α) (Ambion) and its control using siPORTNeoFX transfection reagent (Applied Biosystems) or siRNA against AFTPH and its control (Santa Cruz) using Lipofectamine™ RNAiMAX (Invitrogen) where appropriate. […] Cells were fixed in PBS containing 4% (w/v) paraformeldehyde (pH 7.4, 20 min, 4° C.) and blocked in PBS containing 3% bovine serum and 0.1% Triton X. Cells were incubated (16 h, 4° C.) with the following antibodies (Santa Cruz): goat anti-NTR1 (1:100), goat anti-AFTPH (1:100) and rabbit anti-TGN38 (1:100). Cells were washed and incubated (2 h, room temperature) with bovine anti-goat IgG or bovine-anti-rabbit IgG conjugated to FITC or Texas Red (Santa Cruz, 1:500). […]
Image analysis protocol. Substacks of five optical sections were generated per image and were analyzed using Images J with MacBiophotonics plugins. […] Mean fluorescence intensity was measured for these two regions, representing the intracellular and cell surface associated NTR1 labeling, respectively. The relative surface and intracellular values were expressed as a ratio. […] Only cells with a defined nucleus were analyzed and only within cell comparisons were made. […]

[2] = tested on: SW480 cells; test: Anchorage-independent growth assay with Brefeldin A in the presence of NT; type: cell-based, human
Method: Anchorage-independent growth assays. […] HCT-116 and SW480 cells were transfected with miR-133α or si-AFTPH 2 days prior to the assay. In addition, SW480 cells were treated with 2.5, 5, 10 μg/ml brefeldin A in the presence of 100 nM NT. Triplicates of 5,000 cells were suspended in complete growth media supplemented with 0.4% agarose [mixing 2% agarose with complete growth media in 1:4 (v/v)). Cell mixtures were layered on 0.8% agarose and fed with complete growth media supplemented with 0.4% agarose every 6-7 days. The number of colonies was counted after 15 days. Experiments were repeated 3 times. Statistical significance was calculated using the Student's t-Test.

**Q.** With `C[C@H]1CCC/C=C/[C@@H]2C[C@H](O)C[C@H]2[C@H](O)/C=C/C(=O)O1` [Brefeldin A] as the compound, how does the “membrane-associated NTR1 vs total cellular receptors” value ([1]; 3 h after NT stimulation) read?
**A.** Its value is 57.0±2.95%.

**Q.** What about the “membrane-associated NTR1 vs total cellular receptors” value ([1]; 6 h after NT stimulation) of the same compound?
**A.** Its value is 52.1±2.89%.

**Q.** And the “SW480 cell growth (colony formation)” value ([2]; 2.5, 5, 10 μg/ml)?
**A.** Its value is “inhibited”.

**Q.** What about the “reduction of NT-induced tumor colony formation” value ([2]; NT 100 nM) of the same compound?
**A.** The value was 44.1±1.1%.
